# A melting point compilation (Tetko et al.; mined from patent text by program, amines drawn as free bases though some values may be those of a salt)
row,SMILES,melting point
1,CC(C)CCCC(C)CCCC(C)CCOc1ccc(C(=O)O)o1 (configuration not stated),70 to 73 °C
2,CS(=O)(=O)NCCCOS(C)(=O)=O,53.5 to 55.5 °C
3,CN1CC[C@@H]2CC(=O)c3cccc(F)c3[C@@H]2C1 (relative stereo),> 220 °C
4,O=C(Nc1nc(C(Cl)(Cl)Cl)ns1)c1c(Cl)cccc1Cl,209 °C
5,CCOCCOC(=O)C1=C(C)NC(C(OCC)OCC)=C(C(=O)OCC)C1c1cccc([N+](=O)[O-])c1 (configuration not stated),99 to 100 °C
6,CCNc1cc(Cl)nc(C#N)c1[N+](=O)[O-],120 °C
7,CCOC(=O)NCSSc1ccc([N+](=O)[O-])cc1C(Cl)(Cl)Cl,90 to 91 °C
8,N#CCC1CCSc2sccc2C1=O (configuration not stated),68 to 70 °C
9,CC(Oc1ncn(-c2ccc(Br)cc2)n1)C(N)=O (configuration not stated),179 to 181 °C
10,CSc1c(O)cncc1Oc1ccccc1,131 to 133 °C
11,COc1ccc(-n2c(=O)n(OCc3ccccc3)c(=O)c3cc(F)c(F)cc32)cc1,211 to 212 °C
12,CN(C)C=CC(=O)c1ccc(-c2ccc(N(c3ccccc3)c3ccccc3)cc2)cc1,166 to 167 °C
13,COc1cc(C)ccc1S(=O)(=O)OC(Cl)C(=O)c1ccccc1 (configuration not stated),110 to 112 °C
14,CCCc1nc2c(N)nc3cc(OCCCN)ccc3c2n1CC(C)C,173 to 174 °C
15,CCCC1CCC(c2ccc(-c3cc(F)c(C(F)(F)Oc4cc(F)c(C(F)(F)F)c(F)c4)c(F)c3)c(F)c2)CC1 (configuration not stated),86 °C
16,Cc1cnc2c(C#N)cnn2c1,193 to 194 °C
17,COCc1cnn(-c2c(Cl)cc(C(F)(F)F)cc2Cl)n1,32 to 33 °C
18,CNC(=O)c1cc2c(nc(C)n2C)c(O)c1CCC(=O)c1ccccc1,284 to 285 °C
19,N=C(NC(=O)OCc1ccccc1)c1ccc(C(=O)NCCC(=O)NCCC(=O)OCc2ccccc2)cc1,165 to 166 °C

row,SMILES,melting point
1,CCCn1c(=O)nc(SC)c2c1ncn2C,225 to 226 °C
2,CC(C)C(=O)Nc1nc(N)cnc1-c1cc(Cl)cc(Cl)c1Cl,105 to 108 °C
3,CNc1cc(F)ccc1C(=O)OC,39 to 39.5 °C
4,COC(=O)Cn1c(=O)[nH]c2ccccc2c1=O,205 to 206 °C
5,COc1ccc(C=CC(=O)NO)cc1OC,183 to 185 °C
6,CN(C)Cc1nnc2n1-c1ccc(Br)cc1C(c1ccccn1)=NC2,163 to 164 °C
7,CCOc1cc2cc(CO)c(CO)c(-c3ccnc(Cl)c3)c2cc1OCC,148 to 150 °C
8,CC1CN(C(=O)Cl)NC1=O (configuration not stated),145 °C
9,CCOc1ccc2ccccc2c1C(=O)NC(Cc1ccc(C(F)(F)F)cc1)C(=O)c1ccc(F)cc1 (configuration not stated),188 to 189 °C
10,C#CCSc1ncc(Cl)cn1,66 °C
11,Cn1ncc(/C=C/C(=O)Nc2ccc(CS(C)=O)cc2)c1-c1ccc(F)cc1 (configuration not stated),240 to 241 °C
12,NC(=NCC(F)(F)F)Nc1ccnc(SCCCC(=O)NCCO)n1,148 to 150 °C
13,COC(=O)C(F)=CC1C(C(=O)O)C1(C)C (configuration not stated),89 °C
14,CCN1C(=O)CNCc2cc(OC)c(N)cc21,69 to 73 °C
15,CCCCNS(=O)(=O)c1cc(C(=O)O)cc(NCc2ccccc2)c1Oc1ccccc1,212 °C
16,CCCCCC(O)c1cccc(OCc2cccc(CC(=O)O)c2)c1 (configuration not stated),111 to 113 °C
17,O=C(NS(=O)(=O)NCCc1cccs1)OCc1ccccc1,129 to 131 °C
18,O=C1CN2Cc3cccc(OCCCC(=O)N(CCO)CCCCC4CCCCC4)c3N=C2N1,110 to 111 °C
19,CN=Cc1cccc(C(=O)NC)c1,87 °C

row,SMILES,melting point
1,CCCCCCCCCCCc1nnc2n1-c1sc(CC)cc1C(c1ccc(O)cc1)=NC2,164 to 166 °C
2,CCCCc1cc2cc(C(=O)OCC)ccn2c1,47 to 48 °C
3,COc1ccc(N2C(=O)C3=C(SCCS3)C2OC(=O)N2CCN(C)CC2)nn1 (configuration not stated),196 to 198 °C
4,O=C(Nc1c([N+](=O)[O-])cc(C(F)(F)F)cc1[N+](=O)[O-])C(F)(F)F,222 to 224 °C
5,COC(=O)C(C)Oc1noc2cc(Cl)c([N+](=O)[O-])cc12 (configuration not stated),98 to 101 °C
6,CN(C)C=NC(=O)c1cnn2c(-c3ccccc3)ccnc12,198 to 202 °C
7,COCCc1cnc(Cl)nc1,25 to 26 °C
8,C/C(=C\c1ccc(OC(C)C)cc1Oc1ncc(C(F)(F)F)cc1Cl)C(=O)NS(=O)(=O)NCCc1ccccn1,121 to 123 °C
9,CCN1CC(=O)N(c2ccccc2SC)C1=S,128 to 131 °C
10,O=S(=O)(c1ccc(Br)cc1)n1ccc2ccccc21,106 °C
11,CC(=N)NC(=O)Nc1ccc(C)cc1,210 to 212 °C
12,COC(=O)c1cc(N=[N+]=[N-])ccc1Nc1ccccc1,64 to 65 °C
13,CN(C)c1ncc([N+](=O)[O-])cc1Cl,111 to 113 °C
14,O=C(CCCCCOc1ccc(OCc2ccccc2)cc1)C(F)(F)F,59 to 60 °C
15,COc1cc(OC)nc(NC(=O)NS(=O)(=O)Nn2cccc2C(=O)C(F)(F)F)n1,145 to 147 °C
16,N#Cc1ccc(NC(=O)c2cc3cccc(S(=O)(=O)c4ccccc4)c3[nH]2)c(-c2nnn[nH]2)c1,293 to 295 °C
17,CON=C(C)Cc1sc2ccc(Cl)cc2c1Cl,65 to 68 °C
18,CCCCc1nc(CO)c(Br)[nH]1,160 °C
19,Cc1nc(Nc2c([N+](=O)[O-])cc(C(F)(F)F)c(Cl)c2[N+](=O)[O-])c(Cl)cc1Cl,128 to 130 °C

# Further lines, results first:
row,melting point,SMILES
1,148 to 150 °C,CCOC(=O)/C=C/c1ccc(-c2ccc(OCc3ccccc3)c(C34CC5CC(CC(C5)C3)C4)c2)c(Cl)c1
2,183 to 184 °C,CCCn1cc(C(=O)NCc2ccc(Cl)cc2)c(=O)c2cc(C#CCO)ccc21
3,147 to 148 °C,COc1cccc(CC(=O)Nc2ccc3sc(C)nc3c2Cl)c1
4,238 to 242 °C,O=C(c1cc(-c2ccccc2)c(=O)n2c1-c1ccccc1C2)N1CC(O)C1
5,161 to 163 °C,Oc1ccc2c(c1)CC(NCc1ccccc1)CC2 (configuration not stated)
6,99 to 101 °C,O=C(NCC1Cc2ccc3c(c2O1)CCC3)OCc1ccccc1 (configuration not stated)
7,152 to 154 °C,NS(=O)(=O)c1ccc(-c2cc(C(=O)CCCO)nn2C2CCCCC2)cc1
8,188 to 190 °C,Cc1c(C)c(N2CCN(c3ccc(C(F)(F)F)cc3)CC2)c(C)c2c1OC(C)(C)C2=O
9,164 to 166 °C,O=C1CC(c2ccc3oc4c(c3c2)CCCC4)CC(=O)O1
10,234 °C,COc1cc(NC(=O)Oc2ccccc2)ccc1S(=O)(=O)n1c(=O)n(C2CCCCCC2)c2cc(Cl)ccc21
11,116 to 117 °C,Cc1cc(NC(=O)c2ccc(C(=O)N3CCN(c4ncccc4NC(C)C)CC3)nc2)n[nH]1
12,45 to 47 °C,COc1cc2c(cc1F)C1(CO2)C(=O)N(Cc2ccc(C(F)(F)F)o2)c2ccccc21 (configuration not stated)
13,200 to 202 °C,N#CC1CN(C(=O)[C@H](NC(=O)c2c[nH]c3ncc(-c4ccccc4)nc23)C2CC2)C1
14,121 to 122 °C,CC1(C)CC(c2ccc(F)cc2)=C(/C=C/[C@H]2C[C@H](O)CC(=O)O2)C(C)(C)C1 (relative stereo)
15,146 to 148 °C,Clc1ccc(-c2c[nH]cn2)cc1
16,154 to 155 °C,CCC(OC(=O)C1CC1)c1ccc(Cl)c2nc3n(c12)CCCN3c1ncc(Cl)cc1Cl (configuration not stated)
17,189 to 191 °C,CC1Cc2cc(Cl)c(Cl)cc2C(c2ccc([N+](=O)[O-])cc2)O1 (configuration not stated)
18,187 to 189 °C,O=C(Nc1cc(-c2nnc(Cc3ccccc3)o2)ccn1)c1ccccc1
19,> 220 °C,COc1ccc(-c2ccc3[nH]c4ncc(Cl)cc4c3c2)cc1
20,224 to 227 °C,CC(=O)N(C(C)=O)c1ccc(C2=NN(C(C)=O)C(C)Cc3cc4c(cc32)OCO4)cc1 (configuration not stated)
21,237 to 238 °C,O=C(Nc1ccc(F)cc1)Nn1cnc2ccccc2c1=O
22,140 to 141 °C,Cc1cccc2c(=O)c3cccc(-c4ccccc4)c3oc12
23,118 to 120 °C,O=c1[nH]nccc1NCCCNCCOc1cccc2c1OCCO2

row,melting point,SMILES
1,114 to 121 °C,COC(=O)C(Oc1cc(O)ccc1C#N)c1ccccc1C (racemic)
2,90 to 92 °C,CC(C)S(=O)(=O)NCc1ccc2ccn(C3CCN(CCc4ccc(F)cc4)CC3)c2c1
3,127 to 128 °C,O=C(CCC(=O)N1CCC(c2ccc(F)cc2)CC1)c1ccc2c(c1)CCNCC2
4,278 to 283 °C,COc1ccc(C(=O)NC(=O)Nc2ccc3c(c2)NC(=O)/C3=C/c2ccco2)cc1
5,140 to 145 °C,O=C1Nc2ccc(-c3cccc(Cl)c3)cc2C2(CCCC2)O1
6,155 to 156 °C,CC(C)Oc1ccccc1CN1CCC(=O)C(C(c2ccc(F)cc2)c2ccc(F)cc2)C1 (configuration not stated)
7,132 to 133 °C,COc1ccc(-c2c(CBr)c3ccc(OC)cc3oc2=O)c(OC(C)=O)c1
8,93 to 95 °C,OCCOCC=C(c1ccc(Cl)cc1)c1ccc(Cl)cc1
9,258 to 260 °C,N#Cc1cc(C(F)(F)F)[nH]c1-c1ccc(Cl)c([N+](=O)[O-])c1
10,175 to 176 °C,COc1ccc2c(c1)CN(S(=O)(=O)NC(Cc1cc3c(N)nccc3s1)C(=O)N1CCC(C)CC1)CC2 (configuration not stated)
11,115 °C,Nc1cccc(OCCN2CCCCC2)c1
12,201 °C,Nc1ccc2nc(-c3ccccc3)nn2c1
13,123 to 126 °C,Nc1ccccc1-c1ccc(CCCC(=O)O)cc1
14,158 to 160 °C,CC(C)n1nc(-c2sc(N(C)C)nc2-c2ccccc2)ccc1=O
15,91 °C,COC(=O)[C@H]1CC[C@@H](c2ccc(F)cc2)N1S(=O)(=O)c1ccc(C)cc1 (racemic)
16,87 to 89 °C,CCCCCCc1cc(-c2ccccc2)c(OCC(=O)O)c(-c2ccccc2)c1
17,95 to 97 °C,Cc1cc(-c2ccc(F)cc2)co1
18,90 to 91.5 °C,CCc1ccc(Cc2cc(Br)cc(Br)c2O)cc1
19,183 to 185 °C,CC1(C)C=Cc2cc(C(=O)NCCN3C(=O)c4ccccc4C3=O)ccc2O1
20,287 to 288 °C,COc1ccc2c(c1)[C@](C)(NC(=O)c1cc3ccccc3[nH]1)C(=O)N2c1ccc(F)cc1
21,215 °C,C#Cc1cc2cccnc2c(-c2cccc([N+](=O)[O-])c2)n1
22,179 to 180 °C,COCOc1ccccc1-c1cc(-c2cccc(C(=O)O)c2)c(C#N)c(NC(=O)c2cccs2)n1
